The record followed here is US20100160369A1, “S1P1 Agonists and Methods of Making And Using” (EXELIXIS, INC., priority 2008, published 2010).

The EC50 is the midpoint of the concentration-response curve.

Sequence of S1P1 (P21453 whole entry): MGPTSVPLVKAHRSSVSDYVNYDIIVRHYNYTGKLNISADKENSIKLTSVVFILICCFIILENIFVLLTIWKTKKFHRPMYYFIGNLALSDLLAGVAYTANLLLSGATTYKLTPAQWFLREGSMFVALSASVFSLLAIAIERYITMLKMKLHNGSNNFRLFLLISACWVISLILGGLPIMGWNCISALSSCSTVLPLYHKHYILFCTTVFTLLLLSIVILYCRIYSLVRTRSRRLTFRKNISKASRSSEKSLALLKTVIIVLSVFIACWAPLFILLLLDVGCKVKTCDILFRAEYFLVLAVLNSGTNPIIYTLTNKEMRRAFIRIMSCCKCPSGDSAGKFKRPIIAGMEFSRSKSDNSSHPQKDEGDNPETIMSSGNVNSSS

One experiment deals with S1P1 (Homo sapiens, UniProt P21453). Kind of experiment: CNG cAMP Assay (Assay 1). The class given is cell-based. The arrangement: host or cells: HEK293 cells expressing the CNG channel. The settings on record: footnote 1: Relative EC50 was measured, read-out: Assay 1 Relative EC50. The protocol:
Frozen HEK293 cells expressing the CNG channel and S1P1 (BD Biosciences, San Jose, Calif.) were thawed and plated into the wells of a black, clear bottom, 384-well CellBind plate (Corning, Corning, N.Y.) at 14,000 cells per well. HEK293 cells expressing the CNG channel and CB1 (BD Biosciences) were cultured and plated under the same conditions. The cells were incubated for 16 h at 37° C. in complete DMEM medium (Invitrogen Carlsbad, Calif.) containing 10% FBS (HyClone Logan, Utah), 250 μg/mL geneticin (Invitrogen), and 1 μg/mL puromycin (Sigma-Aldrich, St. Louis, Mo.). A membrane potential dye (BD Biosciences) was added and the plates were incubated for 2-2.5 h at room temperature.
Test compounds were tested at maximum concentrations of 10 μM. Compounds were diluted in DMSO (10 concentration points, 3-fold each) and added to the assay plate at final DMSO concentrations of 1.8%. For each compound, there were duplicate assay plates and each assay plate had duplicate wells per concentration point. Test compounds were added to the cells in a DPBS solution containing 25 μM Ro 20-1724 (Sigma-Aldrich), 500 nM of the A2b receptor agonist NECA (Sigma-Aldrich) and 10 nM (EC95) of S1P (Avanti Alabaster, Ala.) and incubated for 90 min. The assay plate was read before compound addition (T0) and after the 90 min incubation (T90) using an EnVision plate reader (PerkinElmer, Waltham, Mass.) at an excitation wavelength of 350 nm and an emission wavelength of 590 nm. The T90/T0 ratio was determined for each concentration of the test compounds. The percent agonist activity was determined as [(test compound−DMSO alone control)/(NECA alone control−DMSO alone control)*100]. The percent activities were plotted against compound concentration to determine EC50 using XLFit (IDBS, Alameda, Calif.). The control used for calculating rEC50 in the S1P1 CNG agonist assay was DMSO.
Assay 1 is the CNG cAMP Assay as described in Biological Example 1. Assay 2a and 2b are the Tango™ β-arrestin Recruitment Assay in HEK293 and U2OS cells, respectively, as described in Biological Example 2. Assay 3a is the hS1P1R GTPγS Binding Assay as described in Biological Example 3. Assay 3b is the GTP-Eu Binding Assay as described in Biological Example 3. EC50's were measured unless otherwise noted. […] In the table, “nt” means the Compound was not tested and “no” means the compound was tested but had no measurable activity under the assay conditions employed.
As to `O=C(O)c1cc2cc(-c3noc(-c4cn5cc(C(F)(F)F)cc(Cl)c5n4)n3)ccc2o1` [Example 158, 5-{5-[8-chloro-6-(trifluoromethyl)imidazo[1,2-a]pyridin-2-yl]-1,2,4-oxadiazol-3-yl}-1-benzofuran-2-carboxylic acid], the EC50 lay in the range of 1000 to 5000 nM.
Consider `O=C(O)c1cc2cc(-c3noc(-c4cn5cc(C(F)(F)F)cc(Cl)c5n4)n3)ccc2[nH]1` [Example 169, 5-{5-[8-chloro-6-(trifluoromethyl)imidazo[1,2-a]pyridin-2-yl]-1,2,4-oxadiazol-3-yl}-1H-indole-2-carboxylic acid], for which the half-maximal effective concentration (EC50) was 5000 to 10000 nM.

The same experiment, now with this note: read-out: Assay 1 EC50.
`Fc1cccc(Cl)c1-c1noc(-c2cn3cc(C(F)(F)F)cc(Br)c3n2)n1` [Example 147, 8-bromo-2-[3-(2-chloro-6-fluorophenyl)-1,2,4-oxadiazol-5-yl]-6-(trifluoromethyl)imidazo[1,2-a]pyridine]: the concentration for a half-maximal effect (EC50) is 100 to 500 nM.
Regarding `CS(=O)(=O)c1cc(Cl)c2nc(-c3nc(-c4cc(F)c(CCC(=O)O)cc4Cl)no3)cn2c1` [Example 148, 3-(5-chloro-4-{5-[8-chloro-6-(methylsulfonyl)imidazo[1,2-a]pyridin-2-yl]-1,2,4-oxadiazol-3-yl}-2-fluorophenyl)propanoic acid], the EC50 was at most 100 nM.
The same measure, in the same setting: then `FC(F)(F)c1cc(Cl)c2nc(-c3nc(-c4ccc5[nH]ccc5c4)no3)cn2c1` [Example 151, 8-chloro-2-[3-(1H-indol-5-yl)-1,2,4-oxadiazol-5-yl]-6-(trifluoromethyl)imidazo[1,2-a]pyridine], with 100 to 500 nM; and `Cc1cc(F)ccc1-c1noc(-c2cn3cc(C(F)(F)F)cc(Cl)c3n2)n1` [Example 152, 8-chloro-2-[3-(4-fluoro-2-methylphenyl)-1,2,4-oxadiazol-5-yl]-6-(trifluoromethyl)imidazo[1,2-a]pyridine], with at most 100 nM; and `Fc1cccc(-c2noc(-c3cn4cc(C(F)(F)F)cc(Cl)c4n3)n2)c1Cl` [Example 157, 8-chloro-2-[3-(2-chloro-3-fluorophenyl)-1,2,4-oxadiazol-5-yl]-6-(trifluoromethyl)imidazo[1,2-a]pyridine], with 100 to 500 nM.
As to `FC(F)(F)c1cc(Cl)c2nc(-c3nc(-c4cccc5[nH]ccc45)no3)cn2c1` [Example 162, 8-chloro-2-[3-(1H-indol-4-yl)-1,2,4-oxadiazol-5-yl]-6-(trifluoromethyl)imidazo[1,2-a]pyridine], the concentration for a half-maximal effect (EC50) is at most 100 nM.
For the compound `Fc1cccc(Cl)c1-c1noc(-c2cn3cc(C(F)(F)F)cc(Cl)c3n2)n1` [Example 163, 8-chloro-2-[3-(2-chloro-6-fluorophenyl)-1,2,4-oxadiazol-5-yl]-6-(trifluoromethyl)imidazo[1,2-a]pyridine], the EC50 fell in the range of 100 to 500 nM.
The same measure, in the same setting: then `FC(F)(F)c1cc(Cl)c2nc(-c3nc(-c4ccc5[nH]cnc5c4)no3)cn2c1` [Example 164, 5-{5-[8-chloro-6-(trifluoromethyl)imidazo[1,2-a]pyridin-2-yl]-1,2,4-oxadiazol-3-yl}-1H-benzimidazole], with 100 to 500 nM; and `FC(F)(F)c1cc(Cl)c2nc(-c3nc(-c4ccccc4C(F)(F)F)no3)cn2c1` [Example 165, 8-chloro-6-(trifluoromethyl)-2-{3-[2-(trifluoromethyl)phenyl]-1,2,4-oxadiazol-5-yl}imidazo[1,2-a]pyridine], with 100 to 500 nM; and `Fc1ccc(-c2noc(-c3cn4cc(C(F)(F)F)cc(Cl)c4n3)n2)c(Br)c1` [Example 168, 2-[3-(2-bromo-4-fluorophenyl)-1,2,4-oxadiazol-5-yl]-8-chloro-6-(trifluoromethyl)imidazo[1,2-a]pyridine], with at most 100 nM.
On the same count and under the same terms, then `CC(CC(N)=O)c1ccc(-c2noc(-c3cn4cc(C(F)(F)F)cc(Cl)c4n3)n2)c(Cl)c1` (centres unmarked) [Example 170, 3-(3-chloro-4-{5-[8-chloro-6-(trifluoromethyl)imidazo[1,2-a]pyridin-2-yl]-1,2,4-oxadiazol-3-yl}phenyl)butanamide], with at most 100 nM; and `NC(=O)Cn1ccc2c(-c3noc(-c4cn5cc(C(F)(F)F)cc(Cl)c5n4)n3)cccc21` [Example 174, 2-(4-{5-[8-chloro-6-(trifluoromethyl)imidazo[1,2-a]pyridin-2-yl]-1,2,4-oxadiazol-3-yl}-1H-indol-1-yl)acetamide], with at most 100 nM.
With `O=C(Cn1ccc2c(-c3noc(-c4cn5cc(C(F)(F)F)cc(Cl)c5n4)n3)cccc21)NCCO` [Example 175, 2-(4-{5-[8-chloro-6-(trifluoromethyl)imidazo[1,2-a]pyridin-2-yl]-1,2,4-oxadiazol-3-yl}-1H-indol-1-yl)-N-(2-hydroxyethyl)acetamide], the EC50 is at most 100 nM.
The same measure, in the same setting: then `FC(F)(F)c1ccc(-c2noc(-c3cn4cc(C(F)(F)F)cc(Cl)c4n3)n2)c(Cl)c1` [Example 183, 8-chloro-2-{3-[2-chloro-4-(trifluoromethyl)phenyl]-1,2,4-oxadiazol-5-yl}-6-(trifluoromethyl)imidazo[1,2-a]pyridine], with 500 to 1000 nM.
Turning to `CC(CC(=O)O)c1ccc(-c2noc(-c3cn4cc(C(F)(F)F)cc(Cl)c4n3)n2)c(F)c1` (centres unmarked) [Example 186, 3-(4-{5-[8-chloro-6-(trifluoromethyl)imidazo[1,2-a]pyridin-2-yl]-1,2,4-oxadiazol-3-yl}-3-fluorophenyl)butanoic acid], the EC50 is 100 to 500 nM.
The same measure, in the same setting: then `Oc1ccc(-c2noc(-c3cn4cc(C(F)(F)F)cc(Cl)c4n3)n2)c(Cl)c1` [Example 187, 3-chloro-4-{5-[8-chloro-6-(trifluoromethyl)imidazo[1,2-a]pyridin-2-yl]-1,2,4-oxadiazol-3-yl}phenol], with at most 100 nM; and `N[C@@H](COc1ccc(-c2noc(-c3cn4cc(C(F)(F)F)cc(Cl)c4n3)n2)c(Cl)c1)C(=O)O` [Example 188, O-(3-chloro-4-{5-[8-chloro-6-(trifluoromethyl)imidazo[1,2-a]pyridin-2-yl]-1,2,4-oxadiazol-3-yl}phenyl)serine], with 100 to 500 nM.
The same measure, in the same setting: then `CC(Cc1ccc(-c2noc(-c3cn4cc(C(F)(F)F)cc(Br)c4n3)n2)c(Cl)c1)C(=O)O` (centres unmarked) [Example 189, 3-(4-{5-[8-bromo-6-(trifluoromethyl)imidazo[1,2-a]pyridin-2-yl]-1,2,4-oxadiazol-3-yl}-3-chlorophenyl)-2-methylpropanoic acid], with at most 100 nM; and `CC(Cc1ccc(-c2noc(-c3cn4cc(C(F)(F)F)cc(Cl)c4n3)n2)c(F)c1)C(=O)O` (centres unmarked) [Example 192, 3-(4-{5-[8-chloro-6-(trifluoromethyl)imidazo[1,2-a]pyridin-2-yl]-1,2,4-oxadiazol-3-yl}-3-fluorophenyl)-2-methylpropanoic acid], with 100 to 500 nM.
The same measure, in the same setting: the figure for `NC(CC(=O)O)c1ccc(-c2noc(-c3cn4cc(C(F)(F)F)cc(Cl)c4n3)n2)c(Cl)c1` (centres unmarked) [Example 193, 3-amino-3-(3-chloro-4-{5-[8-chloro-6-(trifluoromethyl)imidazo[1,2-a]pyridin-2-yl]-1,2,4-oxadiazol-3-yl}phenyl)propanoic acid] is 100 to 500 nM; for `NCCOc1ccc(-c2nc(-c3cn4cc(C(F)(F)F)cc(Cl)c4n3)no2)c(Cl)c1` [Example 195, 2-[(3-chloro-4-{3-[8-chloro-6-(trifluoromethyl)imidazo[1,2-a]pyridin-2-yl]-1,2,4-oxadiazol-5-yl}phenyl)oxy]ethanamine] it is 100 to 500 nM.
